# Read-outs that look alike come from different tables or passages of the source.
# Key:
# [1] = target: T1, HMG-CoA reductase (Homo sapiens, UniProt P04035); details: cited from earlier work
# T1 sequence (P04035 1-888): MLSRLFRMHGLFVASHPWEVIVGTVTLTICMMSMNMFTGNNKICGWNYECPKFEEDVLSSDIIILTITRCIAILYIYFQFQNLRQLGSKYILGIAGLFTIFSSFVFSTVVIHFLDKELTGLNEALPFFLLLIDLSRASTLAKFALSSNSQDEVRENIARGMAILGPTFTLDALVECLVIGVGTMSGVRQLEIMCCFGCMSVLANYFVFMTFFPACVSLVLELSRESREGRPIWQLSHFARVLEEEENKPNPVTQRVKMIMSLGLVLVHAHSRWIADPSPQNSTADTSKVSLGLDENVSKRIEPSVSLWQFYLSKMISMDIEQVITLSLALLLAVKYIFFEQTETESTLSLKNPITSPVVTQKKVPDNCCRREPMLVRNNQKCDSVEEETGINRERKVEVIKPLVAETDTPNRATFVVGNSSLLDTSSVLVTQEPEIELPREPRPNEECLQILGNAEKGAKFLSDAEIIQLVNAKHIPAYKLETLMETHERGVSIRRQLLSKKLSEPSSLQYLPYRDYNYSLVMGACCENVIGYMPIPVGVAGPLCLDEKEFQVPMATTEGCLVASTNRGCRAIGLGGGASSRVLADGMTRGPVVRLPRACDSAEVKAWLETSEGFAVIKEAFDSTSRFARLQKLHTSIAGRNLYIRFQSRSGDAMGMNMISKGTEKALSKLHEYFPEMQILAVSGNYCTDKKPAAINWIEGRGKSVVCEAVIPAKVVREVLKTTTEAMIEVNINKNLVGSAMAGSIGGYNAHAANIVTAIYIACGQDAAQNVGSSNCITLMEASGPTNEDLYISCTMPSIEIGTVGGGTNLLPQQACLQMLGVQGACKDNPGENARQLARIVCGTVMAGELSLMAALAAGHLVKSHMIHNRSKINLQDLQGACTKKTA
# [2] = Pharmacokinetic analysis after a single oral dose to male dogs (plasma atorvastatin, metabolites, gemcabene); assay type: in vivo, beagle dogs; details: administered in the absence of atorvastatin calcium versus with atorvastatin calcium (FIG. 15)
# [3] = test system: hypercholesterolemic human subjects; details: cited from earlier work
# [4] = in vivo; cited from earlier work
compound,measurement,setting,value
CC(C)c1c(C(=O)Nc2ccccc2O)c(-c2ccccc2)c(-c2ccc(F)cc2)n1CCC(O)CC(O)CC(=O)O (centres unmarked) [2-hydroxy-atorvastatin acid],pharmacological activity (inhibitory activity on HMG-CoA reductase),[1],pharmacologically equipotent to parent atorvastatin
same,pharmacological activity (inhibitory activity on HMG-CoA reductase),[1]; listed as 2-hydroxy-atrovastatin,active towards HMG-CoA reductase
CC(C)c1c(C(=O)Nc2ccccc2O)c(-c2ccccc2)c(-c2ccc(F)cc2)n1CCC1CC(O)CC(=O)O1 (centres unmarked) [2-hydroxy-atorvastatin lactone],pharmacological activity (inhibitory activity on HMG-CoA reductase),[1],pharmacologically inactive
CC(C)c1c(C(=O)Nc2ccc(O)cc2)c(-c2ccccc2)c(-c2ccc(F)cc2)n1CC[C@@H](O)C[C@@H](O)CC(=O)O [4-hydroxy-atorvastatin acid],pharmacological activity (inhibitory activity on HMG-CoA reductase),[1],pharmacologically equipotent to parent atorvastatin
same,pharmacological activity (inhibitory activity on HMG-CoA reductase),[1]; listed as 4-hydroxy-atorvastatin,active towards HMG-CoA reductase
CC(C)c1c(C(=O)Nc2ccc(O)cc2)c(-c2ccccc2)c(-c2ccc(F)cc2)n1CCC1CC(O)CC(=O)O1 (centres unmarked) [4-hydroxy-atorvastatin lactone],pharmacological activity (inhibitory activity on HMG-CoA reductase),[1],pharmacologically inactive
CC(C)c1c(C(=O)Nc2ccccc2)c(-c2ccccc2)c(-c2ccc(F)cc2)n1CC[C@@H]1C[C@@H](O)CC(=O)O1 [atorvastatin lactone],pharmacological activity (inhibitory activity on HMG-CoA reductase),[1],pharmacologically inactive
"CC(C)(CCCCOCCCCC(C)(C)C(=O)O)C(=O)O [gemcabene calcium, 6,6′-oxybis(2,2-dimethylhexanoic acid)]",pharmacokinetic profile of gemcabene,[2],essentially the same
same,triglycerides,"[3]; patients having type IIb hyperlipidemia, certain doses with a statin, versus either alone",surprising ability to lower triglycerides
same,LDL-C levels,[3]; patients on a stable dose of statin not able to reach the target LDL-C goal,further reduce LDL-C levels
same,plasma levels of LDL cholesterol (LDL-C),"[3]; separate administration with a statin, versus a statin alone",significantly reduce
same,fibrinogen,"[3]; some doses with a statin, hypercholesterolemic human subjects with elevated fibrinogen levels",lower fibrinogen
same,c-reactive protein,"[3]; with a statin, versus statin treatment alone",reduce c-reactive protein to an extent greater than the statin treatment alone
same,effect on the pharmacokinetics of simvastatin and atorvastatin,[4],not to significantly affect

# Source: patent US20190008779A1, “GEMCABENE COMPOSITIONS AND METHODS OF USE THEREOF” (GEMPHIRE THERAPEUTICS INC., priority 2017, published 2019)
